Measurements as given in ChEMBL document CHEMBL5325413, “Optimization of BAX trigger site activator BTSA1 with improved antitumor potency and in vitro ADMET properties” (Eur J Med Chem, 2023).
Active and inactive are the calls of the source. The calls are words filed in the database; no cut-off is given here.

Columns and labels:
[1] = test system: A549; test: Induction of apoptosis in human A549 cells assessed as live cells at 10 uM incubated for 48 hrs by Annexin V-FITC/PI staining based flow cytometry analysis (reference value: 96.4%); assay type: functional
[2] = test system: A549; test: Antiproliferative activity against human A549 cells assessed as cell growth inhibition incubated for 72 hrs by MTT assay; assay type: functional
[3] = test system: HCT-116; test: Antiproliferative activity against human HCT-116 cells assessed as cell growth inhibition incubated for 72 hrs by MTT assay; assay type: functional
[4] = test system: PC-3; test: Antiproliferative activity against human PC-3 cells assessed as cell growth inhibition incubated for 72 hrs by MTT assay; assay type: functional
[5] = test system: A549; test: Induction of apoptosis in human A549 cells assessed as late apoptotic cells at 10 uM incubated for 48 hrs by Annexin V-FITC/PI staining based flow cytometry analysis (reference value: 2.15%); assay type: functional
[6] = test system: NCI-H1581; test: Antiproliferative activity against human NCI-H1581 cells expressing BAX assessed as cell growth inhibition incubated for 72 hrs by MTT assay; assay type: functional
[7] = test system: MDA-MB-231; test: Antiproliferative activity against human MDA-MB-231 cells expressing BAX assessed as cell growth inhibition incubated for 72 hrs by MTT assay; assay type: functional
[8] = test system: K562; test: Antiproliferative activity against human K562 cells expressing BAX assessed as cell growth inhibition incubated for 72 hrs by trypan blue cell counting analysis; assay type: functional
[9] = test system: THP-1; test: Antiproliferative activity against human THP-1 cells expressing BAX assessed as cell growth inhibition incubated for 72 hrs by trypan blue cell counting analysis; assay type: functional
[10] = test system: A549; test: Induction of apoptosis in human A549 cells assessed as early apoptotic cells at 5 uM incubated for 48 hrs by Annexin V-FITC/PI staining based flow cytometry analysis (reference value: 1.09 %); assay type: functional
[11] = test system: A549; test: Induction of apoptosis in human A549 cells assessed as dead cells at 5 uM incubated for 48 hrs by Annexin V-FITC/PI staining based flow cytometry analysis (reference value: 0.535%); assay type: functional
[12] = test system: A549; test: Induction of apoptosis in human A549 cells assessed as late apoptotic cells at 10 uM incubated for 48 hrs by Annexin V-FITC/PI staining based flow cytometry analysis (reference value: 2.52%); assay type: functional
[13] = test system: A549; test: Induction of apoptosis in human A549 cells assessed as dead cells at 10 uM incubated for 48 hrs by Annexin V-FITC/PI staining based flow cytometry analysis (reference value: 0.535%); assay type: functional
[14] = test system: A549; test: Induction of apoptosis in human A549 cells assessed as total apoptotic cells at 10 uM incubated for 48 hrs by Annexin V-FITC/PI staining based flow cytometry analysis (reference value: 2.86%); assay type: functional
[15] = test system: A549; test: Induction of apoptosis in human A549 cells assessed as total apoptotic cells at 10 uM incubated for 48 hrs by Annexin V-FITC/PI staining based flow cytometry analysis (reference value: 4.26%); assay type: functional
[16] = test system: A549; test: Induction of apoptosis in human A549 cells assessed as cell rounding at 2.5 to 10 uM incubated for 48 hrs by Hoechst 33342 staining based fluorescence microscopic analysis; assay type: functional; details: dose 2.5-10 µM
[17] = test system: A549; test: Induction of apoptosis in human A549 cells assessed as formation of apoptotic bodies at 2.5 to 10 uM incubated for 48 hrs by Hoechst 33342 staining based fluorescence microscopic analysis; assay type: functional, cell-based; details: dose 2.5-10 µM
[18] = test system: A549; test: Induction of apoptosis in human A549 cells assessed as nuclear fragmentation at 2.5 to 10 uM incubated for 48 hrs by Hoechst 33342 staining based fluorescence microscopic analysis; assay type: functional, cell-based; details: dose 2.5-10 µM
[19] = test system: A549; test: Induction of cell cycle arrest in human A549 cells assessed as accumulation of cells at G0/G1 phase at 5 uM incubated for 48 hrs by RNase/PI staining based flow cytometry analysis (reference value: 54.82%); assay type: functional
[20] = test system: A549; test: Induction of cell cycle arrest in human A549 cells assessed as accumulation of cells at G2/M phase at 2.5 uM incubated for 48 hrs by RNase/PI staining based flow cytometry analysis (reference value: 18.97%); assay type: functional
[21] = target: Apoptosis regulator BAX (Homo sapiens) (UniProt Q07812); test: Activation of BAX in human A549 cells assessed as protein translocation by measuring increase in BAX protein level in mitochondrial fraction incubated for 24 hrs by Western blot analysis; assay type: mitochondria; details: filed as activator, dose 5-40 µM
Chain of Apoptosis regulator BAX (Homo sapiens) (Q07812 whole entry): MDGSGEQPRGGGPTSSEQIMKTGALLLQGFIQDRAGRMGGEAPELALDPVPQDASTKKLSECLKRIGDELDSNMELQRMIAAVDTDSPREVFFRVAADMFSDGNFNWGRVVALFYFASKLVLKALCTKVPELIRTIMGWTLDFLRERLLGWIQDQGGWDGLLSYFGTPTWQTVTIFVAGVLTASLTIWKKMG

[22] = test system: A549; test: Induction of apoptosis in human A549 cells assessed as increase in cleaved PARP level incubated for 48 hrs by Western blot analysis; assay type: functional, cell-based; details: dose 5-40 µM
[23] = Metabolic stability in human liver microsomes assessed as parent compound remaining at 100 uM incubated for 60 mins in absence of NADPH by LC-MS/MS analysis
[24] = Metabolic stability in mouse liver microsomes assessed as parent compound remaining at 100 uM incubated for 60 mins in presence of NADPH by LC-MS/MS analysis
[25] = Stability in rat plasma assessed as compound remaining measured immediately; assay type: ADME, cell-free; details: read-out: Stability
[26] = Stability in rat plasma assessed as compound remaining measured after 60 mins; assay type: ADME, cell-free; details: read-out: Stability
[27] = Stability in rat plasma assessed as compound remaining measured after 120 mins; assay type: ADME, cell-free; details: read-out: Stability
[28] = Drug recovery in mouse liver microsomes at 100 uM incubated for 60 mins in absence of NADPH by LC-MS/MS analysis; assay type: ADME, Microsome; details: read-out: Drug recovery
[29] = target: Cytochrome P450 3A4 (Homo sapiens, UniProt P08684); test: Inhibition of CYP3A4 in human liver microsomes using midazolam as substrate prewarmed for 10 mins followed by NADPH addition and measured after 10 mins by LC-MS/MS analysis
Chain of Cytochrome P450 3A4 (P08684 whole entry): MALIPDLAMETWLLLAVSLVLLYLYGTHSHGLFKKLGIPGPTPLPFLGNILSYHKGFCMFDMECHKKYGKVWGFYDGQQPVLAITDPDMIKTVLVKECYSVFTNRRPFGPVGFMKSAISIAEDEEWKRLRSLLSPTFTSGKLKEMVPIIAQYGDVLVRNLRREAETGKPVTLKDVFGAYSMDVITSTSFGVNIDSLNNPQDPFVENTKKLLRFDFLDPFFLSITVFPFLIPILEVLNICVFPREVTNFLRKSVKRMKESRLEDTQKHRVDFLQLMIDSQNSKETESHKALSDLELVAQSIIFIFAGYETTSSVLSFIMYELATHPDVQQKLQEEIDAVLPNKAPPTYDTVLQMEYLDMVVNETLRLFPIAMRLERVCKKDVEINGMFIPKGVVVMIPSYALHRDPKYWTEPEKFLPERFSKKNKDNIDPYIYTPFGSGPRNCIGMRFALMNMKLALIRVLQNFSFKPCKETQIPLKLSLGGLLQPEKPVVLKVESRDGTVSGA

[30] = human, 1 h, 100 µM
[31] = mouse, microsomes, 1 h, 100 µM

Compound: CN(C)C1CCN(C(=O)c2ccc(N3N=C(c4ccccc4)/C(=N/Nc4ccccc4)C3=O)cc2)CC1
- Activity [1]: 95.9%
- GI50 [2]: 2150 nM
- GI50 [3]: 3310 nM
- GI50 [4]: 2500 nM
- Activity [5]: 22.5%
- GI50 [6]: 2150 nM
- GI50 [7]: 3980 nM
- GI50 [8]: 1410 nM
- GI50 [9]: 2180 nM
- Activity [10]: 10.6%
- Activity [11]: 0.284%
- Activity [12]: 18.4%
- Activity [13]: 0.583%
- Activity [14]: 93.7%
- Activity [15]: 73.4%
- Activity [16]: Active
- Activity [17]: Active
- Activity [18]: Active
- Activity [19]: 63.73%
- Activity [20]: 16.48%
- Activity [21]: Dose-Dependent Effect
- Activity [22]: Dose-Dependent Effect
- remaining at 1 h, 100 µM [23]: 102%
- remaining at 1 h, 100 µM [24]: 74.1%
- remaining at 0 min [25]: 100%
- remaining at 1 h [26]: 94.8%
- remaining at 2 h [27]: 92.9%
- remaining at 1 h, 100 µM [28]: 96%
- IC50 [29]: > 50000 nM
- CLH [30]: < 8.6 mL/min/kg
- CLint [31]: < 9.6 µL/min/mg
